1 molecule from publication PMC7724564 (Science Bulletin, 2020) can be followed below.

Molecules are shown by their SMILES.

This assay addresses human angiotensin-converting enzyme 2 (ACE2) (Homo sapiens, UniProt Q9BYF1). In words: biolayer interferometry. Format: binding. On the technique in general: BLI is a label-free optical method that tracks binding on a fibre tip over time.

Sequence of human angiotensin-converting enzyme 2 (ACE2) (Q9BYF1 18-740): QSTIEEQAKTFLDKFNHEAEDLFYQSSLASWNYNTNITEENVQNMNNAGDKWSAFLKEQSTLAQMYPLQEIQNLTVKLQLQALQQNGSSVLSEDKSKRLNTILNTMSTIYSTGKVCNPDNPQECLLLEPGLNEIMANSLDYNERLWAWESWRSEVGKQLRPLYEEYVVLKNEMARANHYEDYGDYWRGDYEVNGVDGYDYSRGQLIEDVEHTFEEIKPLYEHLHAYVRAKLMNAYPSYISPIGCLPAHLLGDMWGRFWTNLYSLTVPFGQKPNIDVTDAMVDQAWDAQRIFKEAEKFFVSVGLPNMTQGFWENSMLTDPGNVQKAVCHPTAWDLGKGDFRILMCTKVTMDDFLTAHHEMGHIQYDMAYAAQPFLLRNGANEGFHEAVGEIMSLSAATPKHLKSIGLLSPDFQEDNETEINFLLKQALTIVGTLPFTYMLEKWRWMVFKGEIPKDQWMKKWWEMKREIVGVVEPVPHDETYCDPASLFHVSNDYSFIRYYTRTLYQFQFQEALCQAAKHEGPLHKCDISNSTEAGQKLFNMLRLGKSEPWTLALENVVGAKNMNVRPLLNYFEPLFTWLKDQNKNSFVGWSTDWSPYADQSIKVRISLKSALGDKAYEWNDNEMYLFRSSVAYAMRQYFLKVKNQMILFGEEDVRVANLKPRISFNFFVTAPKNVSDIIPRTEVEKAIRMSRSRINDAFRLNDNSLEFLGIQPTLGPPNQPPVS

`C=CC1=C(C)c2cc3[nH]c(cc4nc(cc5[nH]c(cc1n2)c(C)c5CCC(=O)O)C(CCC(=O)O)=C4C)c(C)c3C=C` [protoporphyrin IX]: binding was characterised by a dissociation constant (Kd) of 39 µM.
